Assay results as given in patent US12281122B1, “PI3K inhibitors” (Cogent Biosciences, Inc., priority 2023, dated 2025).

Assays:
[1] = tested on: SKBR3 (PI3Kα-Wild Type) cell line; test: HTRF phospho-AKT(S473) cell assay in SKBR3 cells; format: cell-based, human; settings: Homo sapiens, SK-BR-3; HTRF phospho-AKT(S473), SKBR3 (PI3Kα-Wild Type) cells, 2 hours compound incubation, PDGF-BB stimulated
Summary of the method: (§1)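 HTRF read-out of phospho-AKT(S473) in lysates gave IC50 values after 2 h compound exposure at 37° C. Dose series was 12 points at 1:3, topping at 5 μM for T47D and 10 μM for SKBR3. Only SKBR3 received 70 ng/ml PDGF-BB during the last 15 minutes.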

[2] = tested on: T47D (PI3Kα-H1047R) cell line; test: HTRF phospho-AKT(S473) cell assay in T47D cells; format: cell-based, human; settings: Homo sapiens; HTRF phospho-AKT(S473), T47D (PI3Kα-H1047R) cells, 2 hours compound incubation
Summary of the method: as §1

| IC50 [1] | IC50 [2] | Structure (SMILES) |
| --- | --- | --- |
| 1 to 5 µM | 0.25 to 0.5 µM | Cc1cc([C@@H](C)Nc2ccc(Cl)nc2C(=O)NS(C)(=O)=O)c2nc(N3CCC(c4ncc(C)o4)CC3)n(C)c(=O)c2c1 [Compound 728, (R)-6-chloro-3-((1-(3,6-dimethyl-2-(4-(5-methyloxazol-2-yl)piperidin-1-yl)-4-oxo-3,4-dihydroquinazolin-8-yl)ethyl)amino)-N-(methylsulfonyl) picolinamide] |
| 1 to 5 µM | 0.25 to 0.5 µM | COc1nc(C)cc(N2CCN(c3nc4c([C@@H](C)Nc5ccc(Cl)nc5C(=O)NS(C)(=O)=O)cc(C)cc4c(=O)n3C)CC2)n1 [Compound 729, (R)-6-chloro-3-((1-(2-(4-(2-methoxy-6-methylpyrimidin-4-yl)piperazin-1-yl)-3,6-dimethyl-4-oxo-3,4-dihydroquinazolin-8-yl)ethyl)amino)-N-(methylsulfonyl) picolinamide] |
| 1 to 5 µM | 0.25 to 0.5 µM | Cc1cc([C@@H](C)Nc2ccc(Cl)nc2C(=O)NS(C)(=O)=O)c2nc(N3CCN(c4cc(F)cnc4C)CC3)n(C)c(=O)c2c1 [Compound 730, (R)-6-chloro-3-((1-(2-(4-(5-fluoro-2-methylpyridin-3-yl)piperazin-1-yl)-3,6-dimethyl-4-oxo-3,4-dihydroquinazolin-8-yl)ethyl)amino)-N-(methylsulfonyl) picolinamide] |
| 1 to 5 µM | < 0.25 µM | [2H]C([2H])([2H])n1ccc([C@H]2[C@@H]3CN(c4nc5c([C@@H](C)Nc6ccc(Cl)nc6C(=O)NS(C)(=O)=O)cc(C)cc5c(=O)n4CC)C[C@@H]32)n1 [Compound 731, 6-chloro-3-(((R)-1-(3-ethyl-6-methyl-2-((1R,5S,6R)-6-(1-(methyl-d3)-1H-pyrazol-3-yl)-3-azabicyclo[3.1.0]hexan-3-yl)-4-oxo-3,4-dihydroquinazolin-8-yl)ethyl)amino)-N-(methylsulfonyl) picolinamide] |
| 1 to 5 µM | < 0.25 µM | CCn1c(N2Cc3cn(CC(F)(F)F)nc3C2)nc2c([C@@H](C)Nc3ccc(Cl)nc3C(=O)NS(C)(=O)=O)cc(C)cc2c1=O [Compound 732, (R)-6-chloro-3-((1-(3-ethyl-6-methyl-4-oxo-2-(2-(2,2,2-trifluoroethyl)-2,6-dihydropyrrolo[3,4-c]pyrazol-5(4H)-yl)-3,4-dihydroquinazolin-8-yl)ethyl)amino)-N-(methylsulfonyl) picolinamide] |
| 1 to 5 µM | 0.5 to 1 µM | CCn1c(N2Cc3cnn(CC(F)(F)F)c3C2)nc2c([C@@H](C)Nc3ccc(Cl)nc3C(=O)NS(C)(=O)=O)cc(C)cc2c1=O [Compound 733, (R)-6-chloro-3-((1-(3-ethyl-6-methyl-4-oxo-2-(1-(2,2,2-trifluoroethyl)-4,6-dihydropyrrolo[3,4-c]pyrazol-5(1H)-yl)-3,4-dihydroquinazolin-8-yl)ethyl)amino)-N-(methylsulfonyl) picolinamide] |
| 1 to 5 µM | 0.25 to 0.5 µM | [2H]C([2H])([2H])n1ccc([C@H]2[C@@H]3CN(c4nc5c([C@@H](C)Nc6ccc(Cl)nc6C(=O)NS(C)(=O)=O)cc(C)cc5c(=O)n4C4CC4)C[C@@H]32)n1 [Compound 734, 6-chloro-3-(((R)-1-(3-cyclopropyl-6-methyl-2-((1R,5S,6R)-6-(1-(methyl-d3)-1H-pyrazol-3-yl)-3-azabicyclo[3.1.0]hexan-3-yl)-4-oxo-3,4-dihydroquinazolin-8-yl)ethyl)amino)-N-(methylsulfonyl) picolinamide] |
| 1 to 5 µM | 0.25 to 0.5 µM | Cc1cc([C@@H](C)Nc2ccc(Cl)nc2C(=O)NS(C)(=O)=O)c2nc(N3Cc4cn(CC(F)(F)F)nc4C3)n(C3CC3)c(=O)c2c1 [Compound 735, (R)-6-chloro-3-((1-(3-cyclopropyl-6-methyl-4-oxo-2-(2-(2,2,2-trifluoroethyl)-2,6-dihydropyrrolo[3,4-c]pyrazol-5(4H)-yl)-3,4-dihydroquinazolin-8-yl)ethyl)amino)-N-(methylsulfonyl) picolinamide] |
| ≥ 5 µM | 0.5 to 1 µM | Cc1cc([C@@H](C)Nc2ccc(Cl)nc2C(=O)NS(C)(=O)=O)c2nc(N3Cc4cnn(CC(F)(F)F)c4C3)n(C3CC3)c(=O)c2c1 [Compound 736, (R)-6-chloro-3-((1-(3-cyclopropyl-6-methyl-4-oxo-2-(1-(2,2,2-trifluoroethyl)-4,6-dihydropyrrolo[3,4-c]pyrazol-5(1H)-yl)-3,4-dihydroquinazolin-8-yl)ethyl)amino)-N-(methylsulfonyl) picolinamide] |
| ≥ 5 µM | 0.25 to 0.5 µM | Cc1cc([C@@H](C)Nc2ccc(Cl)nc2C(=O)NS(C)(=O)=O)c2nc(N3CC[C@H](Nc4ncc(F)cn4)C3)n(C)c(=O)c2c1 [Compound 737, 6-chloro-3-(((R)-1-(2-((S)-3-((5-fluoropyrimidin-2-yl)amino)pyrrolidin-1-yl)-3,6-dimethyl-4-oxo-3,4-dihydroquinazolin-8-yl)ethyl)amino)-N-(methylsulfonyl) picolinamide] |
| ≥ 5 µM | 0.25 to 0.5 µM | Cc1cc([C@@H](C)Nc2ccc(Cl)nc2C(=O)NS(C)(=O)=O)c2nc(N3CC[C@H](Nc4ncc(Cl)cn4)C3)n(C)c(=O)c2c1 [Compound 738, 6-chloro-3-(((R)-1-(2-((S)-3-((5-chloropyrimidin-2-yl)amino)pyrrolidin-1-yl)-3,6-dimethyl-4-oxo-3,4-dihydroquinazolin-8-yl)ethyl)amino)-N-(methylsulfonyl) picolinamide] |
| ≥ 5 µM | 0.25 to 0.5 µM | Cc1cc([C@@H](C)Nc2ccc(Cl)nc2C(=O)NS(C)(=O)=O)c2nc(N3CC[C@H](N(C)c4ncc(F)cn4)C3)n(C)c(=O)c2c1 [Compound 739, 6-chloro-3-(((R)-1-(2-((S)-3-((5-fluoropyrimidin-2-yl)(methyl)amino)pyrrolidin-1-yl)-3,6-dimethyl-4-oxo-3,4-dihydroquinazolin-8-yl)ethyl)amino)-N-(methylsulfonyl) picolinamide] |
| ≥ 5 µM | 0.25 to 0.5 µM | Cc1cc([C@@H](C)Nc2ccc(Cl)nc2C(=O)NS(C)(=O)=O)c2nc(N3CC[C@H](N(C)c4ncc(Cl)cn4)C3)n(C)c(=O)c2c1 [Compound 740, 6-chloro-3-(((R)-1-(2-((S)-3-((5-chloropyrimidin-2-yl)(methyl)amino)pyrrolidin-1-yl)-3,6-dimethyl-4-oxo-3,4-dihydroquinazolin-8-yl)ethyl)amino)-N-(methylsulfonyl) picolinamide] |
| ≥ 5 µM | 0.5 to 1 µM | Cc1cc([C@@H](C)Nc2ccc(Cl)nc2C(=O)NS(C)(=O)=O)c2nc(N3C[C@@H]4[C@H](C3)[C@H]4n3cc(C(F)(F)F)cn3)n(C)c(=O)c2c1 [Compound 741, 6-chloro-3-(((R)-1-(3,6-dimethyl-4-oxo-2-((1R,5S,6S)-6-(4-(trifluoromethyl)-1H-pyrazol-1-yl)-3-azabicyclo[3.1.0]hexan-3-yl)-3,4-dihydroquinazolin-8-yl)ethyl)amino)-N-(methylsulfonyl) picolinamide] |
| 1 to 5 µM | 0.25 to 0.5 µM | Cc1cc([C@@H](C)Nc2ccc(Cl)nc2C(=O)NS(C)(=O)=O)c2nc(N3C[C@@H]4[C@H](C3)[C@H]4c3nc(C)no3)n(C)c(=O)c2c1 [Compound 742, 6-chloro-3-(((R)-1-(3,6-dimethyl-2-((1R,5S,6R)-6-(3-methyl-1,2,4-oxadiazol-5-yl)-3-azabicyclo[3.1.0]hexan-3-yl)-4-oxo-3,4-dihydroquinazolin-8-yl)ethyl)amino)-N-(methylsulfonyl) picolinamide] |
| ≥ 5 µM | 0.25 to 0.5 µM | Cc1cc([C@@H](C)Nc2ccc(Cl)nc2C(=O)NS(C)(=O)=O)c2nc(N3CCC(c4cnn(C(C)C)n4)CC3)n(C)c(=O)c2c1 [Compound 744, (R)-6-chloro-3-((1-(2-(4-(2-isopropyl-2H-1,2,3-triazol-4-yl)piperidin-1-yl)-3,6-dimethyl-4-oxo-3,4-dihydroquinazolin-8-yl)ethyl)amino)-N-(methylsulfonyl) picolinamide] |
| ≥ 5 µM | 0.25 to 0.5 µM | Cc1cc([C@@H](C)Nc2ccc(Cl)nc2C(=O)NS(C)(=O)=O)c2nc(N3C[C@@H]4[C@H](C3)[C@H]4c3ccnc(N(C)C)c3)n(C)c(=O)c2c1 [Compound 745, 6-chloro-3-(((R)-1-(2-((1R,5S,6S)-6-(2-(dimethylamino)pyridin-4-yl)-3-azabicyclo[3.1.0]hexan-3-yl)-3,6-dimethyl-4-oxo-3,4-dihydroquinazolin-8-yl)ethyl)amino)-N-(methylsulfonyl) picolinamide] |
| ≥ 5 µM | < 0.25 µM | [2H]C([2H])([2H])n1ccc(C2CCN(c3nc4c([C@@H](C)Nc5ccc(Cl)nc5C(=O)NS(C)(=O)=O)cc(C)cc4c(=O)n3C)CC2)n1 [Compound 746, (R)-6-chloro-3-((1-(3,6-dimethyl-2-(4-(1-(methyl-d3)-1H-pyrazol-3-yl)piperidin-1-yl)-4-oxo-3,4-dihydroquinazolin-8-yl)ethyl)amino)-N-(methylsulfonyl) picolinamide] |
| 1 to 5 µM | < 0.25 µM | [2H]C([2H])([2H])n1nccc1C1CCN(c2nc3c([C@@H](C)Nc4ccc(Cl)nc4C(=O)NS(C)(=O)=O)cc(C)cc3c(=O)n2C)CC1 [Compound 747, (R)-6-chloro-3-((1-(3,6-dimethyl-2-(4-(1-(methyl-d3)-1H-pyrazol-5-yl)piperidin-1-yl)-4-oxo-3,4-dihydroquinazolin-8-yl)ethyl)amino)-N-(methylsulfonyl) picolinamide] |
| 1 to 5 µM | < 0.25 µM | Cc1ccn(C2CCN(c3nc4c([C@@H](C)Nc5ccc(Cl)nc5C(=O)NS(C)(=O)=O)cc(C)cc4c(=O)n3C)CC2)c(=O)c1 [Compound 753, (R)-6-chloro-3-((1-(3,6-dimethyl-2-(4-(4-methyl-2-oxopyridin-1(2H)-yl)piperidin-1-yl)-4-oxo-3,4-dihydroquinazolin-8-yl)ethyl)amino)-N-(methylsulfonyl) picolinamide] |
